Test results taken from patent EP4729518A1, “CRYSTAL FORM OF METHIONINE ADENOSYLTRANSFERASE 2A HETEROCYCLIC INHIBITOR, PREPARATION METHOD THEREFOR, AND USE THEREOF” (Nanjing Chia Tai Tianqing Pharmaceutical Co., Ltd., priority 2023, dated 2024).
Values belong to the compound of their own block, whether it stands above or below them.

What was measured:
[1] = Heating experiment via DSC followed by XRD; type: physicochemical
Source text: The heated samples were then collected and subjected to XRD analysis. Table 27: Summary of heating test results for various crystal forms

[2] = Solid state stability of crystal forms (XRD and HPLC); type: physicochemical
Protocol: Samples of the crystal forms B, H, and L were placed under the conditions of 25 °C/60% RH and 40 °C/75% RH for 17 days, and then the physicochemical stability of the samples was tested using XRD and HPLC. Table 24: Summary of solid state stability evaluation of crystal forms

Structure (SMILES): Cn1cc2cc(-c3nn4ccc(C5CC5)nc4c(-c4ccc(OC(F)F)cc4)c3=O)ccc2n1 [Crystal form A, 2-cyclopropyl-9-[4-(difluoromethoxy)phenyl]-7-(2-methyl-2H-indazol-5-yl)-8H-pyrimido[1,2-b]pyridazin-8-one]
stability on heating ([1]; after heating (>100 °C)): high-temperature stable crystal form

Structure (SMILES): Cn1cc2cc(-c3nn4ccc(C5CC5)nc4c(-c4ccc(OC(F)F)cc4)c3=O)ccc2n1 [Crystal form B, 2-cyclopropyl-9-[4-(difluoromethoxy)phenyl]-7-(2-methyl-2H-indazol-5-yl)-8H-pyrimido[1,2-b]pyridazin-8-one]
Crystal form change ([2]; 0 day): No
Purity ([2]; 0 day): 98.69%
change in crystal form or purity ([2]; 25 °C/60% RH for 17 days): no change in either crystal form or purity
Crystal form change ([2]; 25 °C/60% RH/17 days): No
Purity ([2]; 25 °C/60% RH/17 days): 98.69%
change in crystal form or purity ([2]; 40 °C/75% RH for 17 days): no change in either crystal form or purity
Crystal form change ([2]; 40 °C/75% RH/17 days): No
Purity ([2]; 40 °C/75% RH/17 days): 98.68%
After heating (crystal form) ([1]; Heating temperature 250 °C): Crystal form A

Structure (SMILES): Cn1cc2cc(-c3nn4ccc(C5CC5)nc4c(-c4ccc(OC(F)F)cc4)c3=O)ccc2n1 [Crystal form D, 2-cyclopropyl-9-[4-(difluoromethoxy)phenyl]-7-(2-methyl-2H-indazol-5-yl)-8H-pyrimido[1,2-b]pyridazin-8-one]
After heating (crystal form) ([1]; Heating temperature 150 °C): Crystal forms A + H + L

Structure (SMILES): Cn1cc2cc(-c3nn4ccc(C5CC5)nc4c(-c4ccc(OC(F)F)cc4)c3=O)ccc2n1 [Crystal form H, 2-cyclopropyl-9-[4-(difluoromethoxy)phenyl]-7-(2-methyl-2H-indazol-5-yl)-8H-pyrimido[1,2-b]pyridazin-8-one]
Crystal form change ([2]; 0 day): No
Purity ([2]; 0 day): 98.62%
change in crystal form or purity ([2]; 25 °C/60% RH for 17 days): no change in purity, but had a decrease in crystallinity
Crystal form change ([2]; 25 °C/60% RH/17 days): No change in crystal form was observed, but the crystallinity decreased
Purity ([2]; 25 °C/60% RH/17 days): 98.59%
change in crystal form or purity ([2]; 40 °C/75% RH for 17 days): no change in either crystal form or purity
Crystal form change ([2]; 40 °C/75% RH/17 days): No
Purity ([2]; 40 °C/75% RH/17 days): 98.59%
After heating (crystal form) ([1]; Heating temperature 250 °C): Crystal form A

Structure (SMILES): Cn1cc2cc(-c3nn4ccc(C5CC5)nc4c(-c4ccc(OC(F)F)cc4)c3=O)ccc2n1 [Crystal form I, 2-cyclopropyl-9-[4-(difluoromethoxy)phenyl]-7-(2-methyl-2H-indazol-5-yl)-8H-pyrimido[1,2-b]pyridazin-8-one]
After heating (crystal form) ([1]; Heating temperature 150 °C): Crystal form A

Structure (SMILES): Cn1cc2cc(-c3nn4ccc(C5CC5)nc4c(-c4ccc(OC(F)F)cc4)c3=O)ccc2n1 [Crystal form M, 2-cyclopropyl-9-[4-(difluoromethoxy)phenyl]-7-(2-methyl-2H-indazol-5-yl)-8H-pyrimido[1,2-b]pyridazin-8-one]
After heating (crystal form) ([1]; Heating temperature 150 °C): Crystal form A

Further lines, results first:

After heating (crystal form) ([1]; Heating temperature 100 °C): Crystal form A
Structure (SMILES): Cn1cc2cc(-c3nn4ccc(C5CC5)nc4c(-c4ccc(OC(F)F)cc4)c3=O)ccc2n1 [Crystal form N, 2-cyclopropyl-9-[4-(difluoromethoxy)phenyl]-7-(2-methyl-2H-indazol-5-yl)-8H-pyrimido[1,2-b]pyridazin-8-one]

After heating (crystal form) ([1]; Heating temperature 150 °C): Crystal form A
Structure (SMILES): Cn1cc2cc(-c3nn4ccc(C5CC5)nc4c(-c4ccc(OC(F)F)cc4)c3=O)ccc2n1 [Crystal form O, 2-cyclopropyl-9-[4-(difluoromethoxy)phenyl]-7-(2-methyl-2H-indazol-5-yl)-8H-pyrimido[1,2-b]pyridazin-8-one]

After heating (crystal form) ([1]; Heating temperature 150 °C): Crystal form A
Structure (SMILES): Cn1cc2cc(-c3nn4ccc(C5CC5)nc4c(-c4ccc(OC(F)F)cc4)c3=O)ccc2n1 [Crystal form P, 2-cyclopropyl-9-[4-(difluoromethoxy)phenyl]-7-(2-methyl-2H-indazol-5-yl)-8H-pyrimido[1,2-b]pyridazin-8-one]

After heating (crystal form) ([1]; Heating temperature 130 °C): Crystal form A
Structure (SMILES): Cn1cc2cc(-c3nn4ccc(C5CC5)nc4c(-c4ccc(OC(F)F)cc4)c3=O)ccc2n1 [Crystal form Q, 2-cyclopropyl-9-[4-(difluoromethoxy)phenyl]-7-(2-methyl-2H-indazol-5-yl)-8H-pyrimido[1,2-b]pyridazin-8-one]
